pIC50, pKi: −log10 of the molar value.

Biological target in one experiment: not listed separately
The experiment can be described thus: Inhibition of wild type Escherichia coli FabI assessed as inhibition of bacterial growth.
`Oc1ccccc1Oc1ccccc1` [2-phenoxylphenol]: the negative-log Ki (pKi) is 9.30.
Still for that read-out and setting: next, `Cc1ccc(Oc2ccccc2)c(O)c1` [PT53]: 8.15.
Same read-out and setting: next, `Oc1cc(F)ccc1Oc1ccccc1` [PT55]: 9.15.

The next experiment deals with T1, Enoyl-[acyl-carrier-protein] reductase [NADPH] FabI (Staphylococcus aureus (strain MRSA252), UniProt Q6GI75).
T1 sequence (Q6GI75 whole entry): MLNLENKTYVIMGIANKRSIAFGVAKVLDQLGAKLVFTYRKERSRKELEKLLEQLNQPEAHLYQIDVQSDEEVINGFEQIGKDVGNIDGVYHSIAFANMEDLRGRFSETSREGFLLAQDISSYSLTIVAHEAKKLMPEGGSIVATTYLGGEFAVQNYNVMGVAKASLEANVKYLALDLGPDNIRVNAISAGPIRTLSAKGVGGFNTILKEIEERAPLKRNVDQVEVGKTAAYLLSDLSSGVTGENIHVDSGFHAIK
The experiment can be described thus: Inhibition of Staphylococcus aureus FabI assessed as inhibition of bacterial growth by measuring the NADH consumption rate at 20 mins.
In the case of `NS(=O)(=O)C1C=CC(NC(=O)CCCN2CCOCC2)C=C1` (stereo unspecified), the pIC50 is 9.51.
Turning to `NS(=O)(=O)c1ccc(/N=C/C2=C(Cl)CCC=C2)cc1`, the pIC50 is 9.46.
Still for that read-out and setting: next, `COc1cc(/C=N/c2ccc(S(N)(=O)=O)cc2)ccc1C(C)=O`: 9.48.

(Values after BindingDB's records for PubMed 32883635 (National Institute of Pharmaceutical Education and Research …, 2020).)
